From PubChem BioAssay (NCI)
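These data come from cells grown in 96-well plates and exposed to compound for 48 hours at five concentrations. GI50 is the concentration that inhibits growth by half. At the TGI there is no net growth.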

Tests used:
Test in all cases: NCI tumour cell line growth inhibition, 48 h
IGROV1 ovarian = test system: IGROV1 ovarian
ACHN renal = test system: ACHN renal
COLO 205 colon = test system: COLO 205 colon
UO-31 renal = test system: UO-31 renal
SN12C renal = test system: SN12C renal
M14 melanoma = test system: M14 melanoma
HS 578T breast = test system: HS 578T breast
MOLT-4 leukemia = test system: MOLT-4 leukemia
HCT-116 colon = test system: HCT-116 colon
NCI/ADR-RES ovarian = test system: NCI/ADR-RES ovarian
NCI-H460 lung = test system: NCI-H460 lung
PC-3 prostate = test system: PC-3 prostate
A549 NSCLC = test system: A549 NSCLC
MCF7 breast = test system: MCF7 breast
NCI-H23 lung = test system: NCI-H23 lung
UACC-257 melanoma = test system: UACC-257 melanoma
SK-MEL-28 melanoma = test system: SK-MEL-28 melanoma
HOP-92 NSCLC = test system: HOP-92 NSCLC
HCC-2998 colon = test system: HCC-2998 colon
HT29 colon = test system: HT29 colon
SF-539 CNS = test system: SF-539 CNS
MDA-MB-231 breast = test system: MDA-MB-231 breast
NCI-H522 lung = test system: NCI-H522 lung
SR leukemia = test system: SR leukemia
U251 CNS = test system: U251 CNS
SF-268 CNS = test system: SF-268 CNS
KM12 colon = test system: KM12 colon
SK-OV-3 ovarian = test system: SK-OV-3 ovarian
HCT-15 colon = test system: HCT-15 colon
OVCAR-4 ovarian = test system: OVCAR-4 ovarian
HL-60(TB) leukemia = test system: HL-60(TB) leukemia
OVCAR-8 ovarian = test system: OVCAR-8 ovarian
RPMI-8226 leukemia = test system: RPMI-8226 leukemia
TK-10 renal = test system: TK-10 renal
CAKI-1 renal = test system: CAKI-1 renal
RXF 393 renal = test system: RXF 393 renal
EKVX NSCLC = test system: EKVX NSCLC
OVCAR-3 ovarian = test system: OVCAR-3 ovarian
SW-620 colon = test system: SW-620 colon
SK-MEL-2 melanoma = test system: SK-MEL-2 melanoma
SNB-75 CNS = test system: SNB-75 CNS
BT-549 breast = test system: BT-549 breast
OVCAR-5 ovarian = test system: OVCAR-5 ovarian
786-0 renal = test system: 786-0 renal
CCRF-CEM leukemia = test system: CCRF-CEM leukemia
MALME-3M melanoma = test system: MALME-3M melanoma
HOP-62 NSCLC = test system: HOP-62 NSCLC
SK-MEL-5 melanoma = test system: SK-MEL-5 melanoma
SF-295 CNS = test system: SF-295 CNS
MDA-MB-435 = test system: MDA-MB-435
T-47D breast = test system: T-47D breast
SNB-19 CNS = test system: SNB-19 CNS
LOX IMVI melanoma = test system: LOX IMVI melanoma
UACC-62 melanoma = test system: UACC-62 melanoma
DU-145 prostate = test system: DU-145 prostate

Structure (SMILES): CCN(CC)CCCNc1ccc(C)c2sc3ccccc3c(=O)c12
- GI50 (IGROV1 ovarian): 1220 nM
- TGI (IGROV1 ovarian): 2920 nM
- GI50 (ACHN renal): 869 nM
- TGI (ACHN renal): 2310 nM
- GI50 (COLO 205 colon): 189 nM
- TGI (COLO 205 colon): 384 nM
- GI50 (UO-31 renal): 514 nM
- TGI (UO-31 renal): 2070 nM
- GI50 (SN12C renal): 1090 nM
- TGI (SN12C renal): 7510 nM
- GI50 (M14 melanoma): 193 nM
- TGI (M14 melanoma): 401 nM
- GI50 (HS 578T breast): 1490 nM
- TGI (HS 578T breast): 5700 nM
- GI50 (MOLT-4 leukemia): 384 nM
- TGI (MOLT-4 leukemia): 1350 nM
- GI50 (HCT-116 colon): 407 nM
- TGI (HCT-116 colon): 1590 nM
- GI50 (NCI/ADR-RES ovarian): 1400 nM
- TGI (NCI/ADR-RES ovarian): 4480 nM
- GI50 (NCI-H460 lung): 460 nM
- TGI (NCI-H460 lung): 1710 nM
- GI50 (PC-3 prostate): 758 nM
- TGI (PC-3 prostate): 2570 nM
- GI50 (A549 NSCLC): 554 nM
- TGI (A549 NSCLC): 1990 nM
- GI50 (MCF7 breast): 277 nM
- TGI (MCF7 breast): 1050 nM
- GI50 (NCI-H23 lung): 1750 nM
- TGI (NCI-H23 lung): 5040 nM
- GI50 (UACC-257 melanoma): 230 nM
- TGI (UACC-257 melanoma): 540 nM
- GI50 (SK-MEL-28 melanoma): 201 nM
- TGI (SK-MEL-28 melanoma): 435 nM
- GI50 (HOP-92 NSCLC): 1960 nM
- TGI (HOP-92 NSCLC): 16200 nM
- GI50 (HCC-2998 colon): 488 nM
- TGI (HCC-2998 colon): 1770 nM
- GI50 (HT29 colon): 279 nM
- TGI (HT29 colon): 1090 nM
- GI50 (SF-539 CNS): 1300 nM
- TGI (SF-539 CNS): 2810 nM
- GI50 (MDA-MB-231 breast): 294 nM
- TGI (MDA-MB-231 breast): 863 nM
- GI50 (NCI-H522 lung): 3080 nM
- TGI (NCI-H522 lung): 15900 nM
- GI50 (SR leukemia): 268 nM
- TGI (SR leukemia): 988 nM
- GI50 (U251 CNS): 602 nM
- TGI (U251 CNS): 1960 nM
- GI50 (SF-268 CNS): 1310 nM
- TGI (SF-268 CNS): 3740 nM
- GI50 (KM12 colon): 1110 nM
- TGI (KM12 colon): 2740 nM
- GI50 (SK-OV-3 ovarian): 1510 nM
- TGI (SK-OV-3 ovarian): 4820 nM
- GI50 (HCT-15 colon): 248 nM
- TGI (HCT-15 colon): 651 nM
- GI50 (OVCAR-4 ovarian): 2120 nM
- TGI (OVCAR-4 ovarian): 33000 nM
- GI50 (HL-60(TB) leukemia): 1710 nM
- TGI (HL-60(TB) leukemia): 3630 nM
- GI50 (OVCAR-8 ovarian): 1410 nM
- TGI (OVCAR-8 ovarian): 3260 nM
- GI50 (RPMI-8226 leukemia): 330 nM
- TGI (RPMI-8226 leukemia): 1340 nM
- GI50 (TK-10 renal): 1370 nM
- TGI (TK-10 renal): 2760 nM
- GI50 (CAKI-1 renal): 1290 nM
- TGI (CAKI-1 renal): 3060 nM
- GI50 (RXF 393 renal): 446 nM
- TGI (RXF 393 renal): 1760 nM
- GI50 (EKVX NSCLC): 2160 nM
- TGI (EKVX NSCLC): 7650 nM
- GI50 (OVCAR-3 ovarian): 3420 nM
- TGI (OVCAR-3 ovarian): 16200 nM
- GI50 (SW-620 colon): 393 nM
- TGI (SW-620 colon): 1510 nM
- GI50 (SK-MEL-2 melanoma): 1660 nM
- TGI (SK-MEL-2 melanoma): 3450 nM
- GI50 (SNB-75 CNS): 5200 nM
- TGI (SNB-75 CNS): 26100 nM
- GI50 (BT-549 breast): 1830 nM
- TGI (BT-549 breast): 11100 nM
- GI50 (OVCAR-5 ovarian): 1260 nM
- TGI (OVCAR-5 ovarian): 2760 nM
- GI50 (786-0 renal): 822 nM
- TGI (786-0 renal): 2180 nM
- GI50 (CCRF-CEM leukemia): 960 nM
- TGI (CCRF-CEM leukemia): 2820 nM
- GI50 (MALME-3M melanoma): 193 nM
- TGI (MALME-3M melanoma): 402 nM
- GI50 (HOP-62 NSCLC): 1140 nM
- TGI (HOP-62 NSCLC): 2550 nM
- GI50 (SK-MEL-5 melanoma): 187 nM
- TGI (SK-MEL-5 melanoma): 343 nM
- GI50 (SF-295 CNS): 808 nM
- TGI (SF-295 CNS): 2220 nM
- GI50 (MDA-MB-435): 210 nM
- TGI (MDA-MB-435): 451 nM
- GI50 (T-47D breast): 492 nM
- TGI (T-47D breast): 2550 nM
- GI50 (SNB-19 CNS): 1030 nM
- TGI (SNB-19 CNS): 2710 nM
- GI50 (LOX IMVI melanoma): 423 nM
- TGI (LOX IMVI melanoma): 1580 nM
- GI50 (UACC-62 melanoma): 205 nM
- TGI (UACC-62 melanoma): 420 nM
- GI50 (DU-145 prostate): 1040 nM
- TGI (DU-145 prostate): 2440 nM
